Measured values taken from patent publication US11123362B2, “Compositions and methods to affect skin irritation” (ALUMEND, LLC, priority 2015, dated 2021).

Legend:
[1] = system: IL-1α secretion, human epidermal equivalents (EPI-200); assay: IL-1α levels 24 hr post-exposure, retinoids, ELISA (Example 2); type: cell-based; conditions: 5% SDS, Positive Control
Experimental: Retinoids were dissolved in one of two vehicles: […] […] A Bio-Tek microplate reader and KC4 software were used for sample analysis.

[2] = system: IL-1α secretion, human epidermal equivalents (EPI-200); assay: IL-1α secretion upon chymotrypsin exposure (Example 5, diaper rash irritation); type: cell-based
Experimental: (§1) Modified chitosan (1%) alone was also included.
(§2) IL-1α secretion was analyzed using the Human IL-1α ELISA Duo Set (R&D Systems, cat# DY200, Lot 1353857). A Bio-Tek microplate reader and KC4 software were used for sample analysis.
(§3) The method is described in Example 1. Test articles included Chymotrypsin (0.005, 0.01 and 0.02%), with and without modified chitosan (1%). Chymotrypsin is the major fecal irritant enzyme that initiates diaper rash.

[3] = system: three-dimensional human epidermal equivalents (EPI-200); assay: In Vitro Skin Irritation Test, MTT tissue viability, retinoids (Example 2); type: cell-based; conditions: positive control irritant (5% SDS)
Experimental: Retinoids were dissolved in one of two vehicles: V1 (50% ethanol, 20% glycerin, 0.1% BHT, in PBS) or V2 (50% ethanol, 0.1% BHT, in PBS).

[4] = system: three-dimensional human epidermal equivalents (EPI-200); assay: In Vitro Skin Irritation Test, MTT tissue viability upon SDS exposure (Example 1); conditions: for mean of viability [%]: 60 minute exposure, MTT after 42 hr
Experimental: An In Vitro Skin Irritation Test was performed according to OCED guidelines. Irritant materials are identified by their ability to decrease cell viability below a defined threshold level of 50%. Moreover, if the cytotoxic effect is absent or weak, a quantifiable amount of inflammatory mediators (e.g. IL-1α) is released by the epidermis and may be used in a tiered approach to increase the sensitivity of the test.
Test materials (30 μl) were topically applied onto three-dimensional human epidermal equivalents (EPI-200 from MatTek, Ashland, Mass.), n=3 tissues per treatment group. Test materials included a positive control irritant (5% sodium dodecyl sulfate, SDS), and a negative control (Phosphate Buffered Saline, PBS), and aqueous SDS solutions of 0.2, 0.4 and 0.6%, with or without the addition of modified chitosan (1%). Modified chitosan (1%) alone was also included.
After a 60 minute exposure, the tissues were rinsed with PBS and were transferred to fresh medium. After 24 hours, media was collected for IL-1α analysis and tissues were transferred to fresh media for an additional 18 hr to allow the toxic effect of irritant chemicals to develop. After the 42 hr post-exposure equilibration, media was again collected and tissue viability was determined using an MTT assay.

[5] = system: IL-1α secretion, human epidermal equivalents (EPI-200); assay: IL-1α secretion upon SDS exposure, ELISA (Example 1); type: cell-based; conditions: for IL-1α secretion, Avg: media at 24 hours
Experimental: as §2

[6] = system: three-dimensional human epidermal equivalents (EPI-200); assay: Cell death upon chymotrypsin exposure (Example 5); type: cell-based; conditions: chymotrypsin 0.005-0.02%, one hour exposure
Excerpt: as §1, §3

[7] = system: IL-1α secretion, epidermal equivalents (EPI-200); assay: IL-1α levels at 96 hr, daily retinol treatment, ELISA (Example 4); type: cell-based, human
Experimental: Epidermal equivalents (EPI-200 from MatTek, Ashland, Mass.) were topically treated daily, for four days, with 30 μl of each test article, n=3 tissues per treatment group. n=3 tissues were left untreated. Test articles were removed from the apical surface of the tissue daily by washing with PBS prior to reapplication of test article. […] Media was collected at 96 hour post treatment and IL-1α concentration was analyzed using the Human IL-1α ELISA Duo Set (R&D Systems, cat# DY200, Lot 1353857). A Bio-Tek microplate reader and KC4 software were used for sample analysis.

[8] = system: Epidermal equivalents (EPI-200); assay: Visual observation of tissues after four days of daily retinol treatment (Example 3); type: cell-based; conditions: 1% retinol in vehicle, daily for four days
Experimental: Epidermal equivalents (EPI-200 from MatTek, Ashland, Mass.) were topically treated daily, for four days, with 30 μl of each test article, n=3 tissues per treatment group. Test articles were removed from the apical surface of the tissue daily by washing with PBS prior to reapplication of test article. Tissues were fed daily with 0.9 mL EPI-100-NMM. Tissues remained untreated, or treated with a vehicle (45% ethanol, 0.1% BHT, in PBS), without and with increasing concentrations of retinol (0.01-1%), with or without the addition of the modified chitosan (1%).

[9] = Untreated + Chymotrypsin (0.005%)
[10] = Untreated + Chymotrypsin (0.01%)
[11] = Untreated + Chymotrypsin (0.02%)

## CCCCCCCCCCCCOS(=O)(=O)[O-].[Na+] [SDS, sodium dodecyl sulfate]
[1]
  IL-1α levels 24 hr post-exposure, AVG: >524.6
[2]; Positive Control (PC, 5% SDS)
  IL-1α secretion, AVG: 394.114
  IL-1α secretion, tissue 1: 459.595
  IL-1α secretion, tissue 2: 384.839
  IL-1α secretion, tissue 3: 337.908
[3]
  viability: less than 10%
[4]; 0.2% SDS
  mean of viability [%]: 110.0%
[4]; 0.4% SDS
  mean of viability [%]: 106.3%
[4]; 0.6% SDS
  tissues dead: ~90%
  mean of viability [%]: 13.8%
[4]; 5% SDS (PC)
  mean of viability [%]: 11.1%
[5]; 0.2% SDS
  IL-1α secretion, Avg: 151.98
[5]; 0.4% SDS
  IL-1α secretion, Avg: 334.95
[5]; 0.6% SDS
  IL-1α secretion, Avg: 524.61
[5]; PC (5% SDS)
  IL-1α secretion, Avg: 425.23
[5]; SDS exposure 0.2-0.6%
  IL-1α secretion: dose-dependent increase in IL-1α secretion

## Chymotrypsin
[2]; [9]
  IL-1α secretion, AVG: 65.279
  IL-1α secretion, tissue 1: 47.295
  IL-1α secretion, tissue 2: 74.241
  IL-1α secretion, tissue 3: 74.302
[2]; [10]
  IL-1α secretion, AVG: 66.405
  IL-1α secretion, tissue 1: 58.421
  IL-1α secretion, tissue 2: 53.293
  IL-1α secretion, tissue 3: 87.502
[2]; [11]
  IL-1α secretion, AVG: 166.821
  IL-1α secretion, tissue 1: 67.307
  IL-1α secretion, tissue 2: 353.378
  IL-1α secretion, tissue 3: 79.779
[2]; chymotrypsin exposure 0.005-0.02%
  IL-1α secretion: dose-dependent increase in IL-1α secretion
[6]
  cell death: did not induce cell death

## CC1=C(/C=C/C(C)=C/C=C/C(C)=C/CO)C(C)(C)CCC1 [retinol]
[7]; Vehicle + retinol (0.01%)
  IL-1α levels at 96 hr post-exposure, AVG: 104.90
  IL-1α levels at 96 hr post-exposure, Tissue 1: 124.24
  IL-1α levels at 96 hr post-exposure, Tissue 2: 108.54
  IL-1α levels at 96 hr post-exposure, Tissue 3: 81.94
[7]; Vehicle + retinol (0.1%)
  IL-1α levels at 96 hr post-exposure, AVG: 240.68
  IL-1α levels at 96 hr post-exposure, Tissue 1: 351.17
  IL-1α levels at 96 hr post-exposure, Tissue 2: 108.86
  IL-1α levels at 96 hr post-exposure, Tissue 3: 262.00
[7]; Vehicle + retinol (1%)
  IL-1α levels at 96 hr post-exposure, AVG: 1020.46
  IL-1α levels at 96 hr post-exposure, Tissue 1: 885.52
  IL-1α levels at 96 hr post-exposure, Tissue 2: 1097.75
  IL-1α levels at 96 hr post-exposure, Tissue 3: 1078.11
[7]; retinol 0.01-1% in vehicle
  skin irritation by IL-1α secretion biomarker: induces skin irritation in a dose-responsive manner
[8]
  visual observations at 96 hour post treatment: partially disintegrated
